# According to patent US4510139A, “Substituted aminobenzamides and their use as agents which inhibit lipoxygenase activity” (Sterling Drug Inc., priority 1984, dated 1985):
# Where two headings read alike, the source gives them in different places.
# Assays:
# cyclooxygenase = biological target: T1, cyclooxygenase (Rattus norvegicus, UniProt Q63921); test: Inhibition of cyclooxygenase derived from rat basophilic leukemia (RBL-1) cells, product C1 (PGD2); format: biochemical
# T1 construct: microsomal fraction containing lipoxygenase and cyclooxygenase; endogenous in cells; host or cells: RBL-1 (rat basophilic leukemia) cells, homogenate / microsomal fraction
# T1 sequence (Q63921 27-602): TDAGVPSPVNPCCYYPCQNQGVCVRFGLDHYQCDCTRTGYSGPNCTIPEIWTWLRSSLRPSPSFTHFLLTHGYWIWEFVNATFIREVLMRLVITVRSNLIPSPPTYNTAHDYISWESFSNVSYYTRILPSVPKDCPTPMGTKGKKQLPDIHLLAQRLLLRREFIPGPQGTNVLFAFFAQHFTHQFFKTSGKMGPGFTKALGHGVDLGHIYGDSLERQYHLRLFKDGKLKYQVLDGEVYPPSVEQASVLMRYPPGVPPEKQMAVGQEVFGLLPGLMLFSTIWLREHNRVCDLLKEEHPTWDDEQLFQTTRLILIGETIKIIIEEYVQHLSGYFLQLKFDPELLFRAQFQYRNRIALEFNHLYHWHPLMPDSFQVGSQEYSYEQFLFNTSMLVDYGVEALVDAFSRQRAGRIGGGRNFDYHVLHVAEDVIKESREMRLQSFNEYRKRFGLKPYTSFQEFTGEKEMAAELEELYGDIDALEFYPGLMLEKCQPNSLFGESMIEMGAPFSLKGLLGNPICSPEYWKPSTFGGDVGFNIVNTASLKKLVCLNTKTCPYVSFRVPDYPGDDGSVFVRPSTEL
# Description: (§1) The primary screening test used is a determination of the inhibition of lipoxygenase and cyclooxygenase derived from rat basophilic leukemia (RBL-1) cells. The test was carried out according to the following procedure:
# (§2) Single cell suspensions of RBL-1 cells are homogenized to obtain the microsomal fraction containing lipoxygenase and cyclooxygenase. Test compounds are added to the enzyme-containing homogenate for a 5 min preincubation period at 37° C. prior to the addition of ^14 C-arachidonic acid substrate. Following incubation at 37° C. for 15 min, the reaction is stopped by the addition of 2M formic acid and the enzyme-substrate products are extracted into chloroform. An aliquot of the extract is evaporated to dryness, reconstituted in ether to 1/10 original volume, spotted in thin layer chromatography plates and chromatographed. The peak areas of radioactivity representing the products are located by scanning the plates. The quantity of products formed is estimated by measuring the height of the radioactivity peaks observed on the chromatographic scans. Alternatively, the areas of radioactivity are scraped from the plate and the ^14 C quantitated by scintillation counting.
# lipoxygenase = biological target: T2, lipoxygenase (Rattus norvegicus, UniProt P12527); test: Inhibition of lipoxygenase derived from rat basophilic leukemia (RBL-1) cells, products L1 (5,12-di-HETE) and L2 (5-HETE); format: biochemical
# T2 construct: microsomal fraction containing lipoxygenase and cyclooxygenase; endogenous in cells; host or cells: RBL-1 (rat basophilic leukemia) cells, homogenate / microsomal fraction
# T2 sequence (P12527 1-673): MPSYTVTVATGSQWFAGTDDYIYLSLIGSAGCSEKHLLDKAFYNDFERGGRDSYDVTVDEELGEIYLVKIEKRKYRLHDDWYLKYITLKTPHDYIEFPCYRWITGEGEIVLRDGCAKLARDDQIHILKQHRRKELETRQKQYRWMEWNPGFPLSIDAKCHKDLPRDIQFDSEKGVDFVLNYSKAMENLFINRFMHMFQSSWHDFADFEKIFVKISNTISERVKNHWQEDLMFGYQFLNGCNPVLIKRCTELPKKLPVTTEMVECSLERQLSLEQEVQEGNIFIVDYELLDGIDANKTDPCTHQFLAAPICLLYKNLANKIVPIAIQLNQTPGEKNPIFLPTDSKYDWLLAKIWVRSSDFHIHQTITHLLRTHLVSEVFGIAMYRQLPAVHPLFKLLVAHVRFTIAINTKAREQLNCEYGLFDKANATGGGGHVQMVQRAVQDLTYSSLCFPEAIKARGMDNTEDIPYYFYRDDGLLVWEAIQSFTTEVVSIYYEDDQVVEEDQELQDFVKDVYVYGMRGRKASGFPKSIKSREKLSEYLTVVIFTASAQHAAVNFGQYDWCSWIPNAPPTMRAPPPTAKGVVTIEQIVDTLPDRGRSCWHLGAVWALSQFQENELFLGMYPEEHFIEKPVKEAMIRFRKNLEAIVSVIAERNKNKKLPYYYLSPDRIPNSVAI
# Description: as §1, §2
# [1] = tested on: SRS-A component of immunologically induced broncho-constriction; test: Effect on the SRS-A component of immunologically induced broncho-constriction in guinea pigs; format: in vivo; details: Cavia porcellus; guinea pig, intravenous; read-out: ED50 (effective dose in 50% of the animals)
# Description: The test was carried out according to the following procedure:
# Two weeks after immunization with egg albumin, guinea pigs are prepared for bronchoconstriction determination. One hour prior to antigen challenge, each animal is dosed orally with indomethacin and chlorpheniramine. Animals are anesthetized with sodium pentobarbital, the trachea cannulated and the animal artifically respired. Arachidonic acid is administered intravenously prior to antigen challenge. The resulting bronchoconstriction is recorded by the standard lung overflow procedure and the peak increase in intratracheal pressure (mm Hg) over a 10 minute observation period is recorded. Compounds are evaluated for their ability to prevent the increased intratracheal pressure in an experimental group of animals as compared to the medicated (indomethacin+chlorpheniramine+arachidonic acid) control group. The results are expressed in terms of percent inhibition or as ED50 values (effective dose in 50% of the animals).
smiles,measurement,setting,value
"O=C(NCc1ccccc1)c1ccccc1Nc1ccc(O)cc1 [Example 11(b), 2-(4-Hydroxyphenylamino)-N-benzylbenzamide]",IC50,cyclooxygenase,> 1000 nM
same,inhibition at 1 µM,"cyclooxygenase; dose of 1 μM, read-out: % Inhibition of cyclooxygenase (C1) formation",0%
same,IC50,"lipoxygenase; IC50 L1, L1 = 5,12-di-HETE",70 nM
same,IC50,"lipoxygenase; IC50 L2, L2 = 5-HETE",40 nM
same,inhibition at 1 µM,lipoxygenase; read-out: % Inhibition of lipoxygenase (L1) formation,87%
same,inhibition at 1 µM,lipoxygenase; read-out: % Inhibition of lipoxygenase (L2) formation,96%
same,ED50,[1],0.61 mg/kg
